Laboratory results as given in article PMC9081329, “Pharmacokinetics, Mass Balance, Excretion, and Tissue Distribution of Plasmalogen Precursor PPI-1011” (Frontiers in Cell and Developmental Biology, 2022).

Assay: Plasma pharmacokinetics of total radioactivity after a single oral dose of [^14C]PPI-1011 100 mg/kg
Assay type: in vivo, Sprague-Dawley rats
Conditions: single oral 100 mg/kg; for AUCInf / AUClast / Cmax / MRTInf / t1/2 / tmax / AUC Extr: plasma total radioactivity
Protocol: The pharmacokinetics of [^14C]PPI-1011 were performed in four rats that were surgically implanted with femoral artery catheters (FAC) for blood collection at least 2 days before dosing began. [^14C]PPI-1011 was administered as a single oral dose at 100 mg/kg (200 μCi/kg). Blood samples were collected in EDTA tubes and centrifuged to obtain plasma at 1, 3, 6, 12, 18, 24, 48, and 72 h after drug administration. Duplicate aliquots of plasma (∼25 μl or higher) were transferred to liquid scintillation vials and the weights of sample aliquots were recorded. Aliquots were mixed with Ultima Gold (5 ml) as scintillation fluid and total radioactivity was determined by liquid scintillation counting (LSC) and used to calculate the total radioactive concentration.
The PK calculations of total radioactivity in plasma were analyzed with non-compartmental analyses using Phoenix® WinNonlin® software (version 8.1). Statistical calculations for the other studies were limited to simple parameters such as means or averages, standard deviations (sd), and percentages (%). The amount of compound equivalents (Eq) in samples was calculated as concentrations expressed in μg Eq/g. Dose, MCID™ generated tissue concentrations, pharmacokinetic, and radioanalysis data were compiled using Microsoft Excel for Microsoft 365, Version 2010.

## CC/C=C\C/C=C\C/C=C\C/C=C\C/C=C\C/C=C\CCC(=O)O[C@H](CO[14CH2]CCCCCCCCCCCCCCC)COC(=O)CCCCC1CCSS1 (stereo partly shown) [[^14C]PPI-1011]
1 h
  Mean total radioactivity in plasma: approximately 500 ng Eq/g
6 h
  Mean total radioactivity in plasma: ~27,000 ng Eq/g
72 h
  Mean total radioactivity in plasma: ~4,000 ng Eq/g
Mean of 4 rats
  AUCInf: 867,000 h*ng/ml
  AUClast: 608,000 h*ng/ml
  Cmax: 27,900 ng/ml
  MRTInf: 55 h
  t1/2: 40 h
  tmax: 7.5 h
Rat 1
  AUC Extr: 6.8%
  AUCInf: 753,000 h*ng/ml
  AUClast: 702,000 h*ng/ml
  Cmax: 30,000 ng/ml
  MRTInf: 27 h
  t1/2: 18 h
  tmax: 6.0 h
Rat 2
  AUC Extr: 31%
  AUCInf: 953,000 h*ng/ml
  AUClast: 659,000 h*ng/ml
  Cmax: 21,500 ng/ml
  MRTInf: 61 h
  t1/2: 42 h
  tmax: 6.0 h
Rat 3
  AUC Extr: 6.5%
  AUCInf: 542,000 h*ng/ml
  AUClast: 507,000 h*ng/ml
  Cmax: 42,500 ng/ml
  MRTInf: 23 h
  t1/2: 19 h
  tmax: 6.0 h
Rat 4
  AUC Extr: 54%
  AUCInf: 1,220,000 h*ng/ml
  AUClast: 565,000 h*ng/ml
  Cmax: 17,400 ng/ml
  MRTInf: 110 h
  t1/2: 80 h
  tmax: 12 h
